Source: patent EP0302423A2, “1-Phenyl-3-(1-piperazinyl)-1h-indazoles, a process and intermediates for their preparation, and the use thereof as medicaments” (HOECHST-ROUSSEL PHARMACEUTICALS INCORPORATED, priority 1987, dated 1989)
Where a name gives a salt, the structure may show the parent alone. Read-outs that look alike come from different tables or passages of the source.

Legend:
Format in all cases: in vivo
[1] = tested on: mice; experiment: tetrabenazine induced ptosis assay in mice (antidepressant activity); conditions: for ED50: Mus musculus, ip, i.p. dose effecting calculated 50% inhibition of tetrabenazine-induced ptosis in mice, read-out: ANTI-DEPRESSANT ACTIVITY (% Inhibition of Ptosis) ED50 (mg/kg,i.p.)
Protocol: In this procedure, male mice (Charles River, CD-1), weighing about 20 to 39 g, are used in test groups of five animals. Test compounds are dissolved, or suspended with 1 drop of Tween-80, in distilled water and administered to the animals in volumes of 10 cc per kg of body weight. […] Tetrabenazine solution and the solvent used to dissolve, or suspend, the test compounds are administered by the same route and at the same intervals as the test compounds to a control group. […] The total score for each group of 5 animals will therefore vary from 0 to 20; these scores are used as the indications of the activity of the test compound. The vehicle-control group score is used as a determinate of the validity of each test.

[2] = tested on: mice; experiment: phenyl-p-benzoquinone writhing assay in mice (analgesia); conditions: Mus musculus, sc
[3] = tested on: male mouse; experiment: supramaximal electroshock (SES) assay (anticonvulsant activity); conditions: for ED50: ip, read-out: ANTICONVULSANT ACTIVITY (% Inhibition of Convulsion) ED50 (mg/kg,i.p.)
[4] = calculated s.c. dose effecting approximately 50% inhibition of writhing in mice, at peak time, read-out: ANALGESIC ACTIVITY (% Inhibition of Writhing) ED50
[5] = male mouse, at peak activity time, protection against extensor tonus
[6] = read-out: ANALGESIC ACTIVITY (% Inhibition of Writhing) ED50 (mg/kg)

## Fc1ccc(-n2nc(N3CCNCC3)c3ccccc32)cc1 [1-(4-Fluorophenyl)-3-(1-piperazinyl)-1H-indazole]
[1]
  ED50: 17.3 mg/kg

## CN1CCN(c2nn(-c3ccc(F)cc3)c3ccccc23)CC1.O=C(O)/C=C/C(=O)O [1-(4-Fluorophenyl)-3-(4-methyl-1-piperazinyl)-1H-indazole fumarate]
[2]; [4]
  ED50: 0.8 mg/kg
[1]; 20 mg/kg, i.p., mice
  % inhibition of ptosis at indicated screening dosage (i.p.): 65% @ 20 mg/kg*
[3]; [5]
  ED50: 12.9 mg/kg

## c1ccc(-n2nc(N3CCNCC3)c3ccccc32)cc1 [1-Phenyl-3-(1-piperazinyl)-1H-indazole hydrocloride]
[2]; [4]
  ED50: 0.7 mg/kg
[1]
  ED50: 25.4 mg/kg
[3]; 60 mg/kg, i.p., male mouse
  % inhibition of convulsions at indicated dosage: 100% @ 60 mg/kg*

## CN1CCN(c2nn(-c3ccccc3)c3ccccc23)CC1.Cl [1-Phenyl-3-(4-methyl-1-piperazinyl)-1H-indazole hydrochloride]
[2]; [4]
  ED50: 1.6 mg/kg
[1]
  ED50: 11.1 mg/kg
[3]; [5]
  ED50: 14.6 mg/kg

## CCN1CCN(c2nn(-c3ccc(C(F)(F)F)cc3)c3ccccc23)CC1 [3-(4-Ethyl-1-piperazinyl)-1-[4-trifluoromethyl)phenyl]-1H-indazole fumarate]
[3]; [5]
  ED50: 8.2 mg/kg

## CN1CCN(c2nn(-c3ccc(C(F)(F)F)cc3)c3ccccc23)CC1.O=C(O)/C=C/C(=O)O [3-(4-Methyl-1-piperazinyl)-1-[4-(trifluoromethyl)phenyl]-1H-indazole fumarate]
[3]; [5]
  ED50: 27 mg/kg

## CP(C)(=O)CN1CCN(c2nn(-c3ccccc3)c3ccccc23)CC1 [3-[4-(Dimethylphosphinylmethyl)-1-piperazinyl]-1-phenyl-1H-indazole]
[3]; [5]
  ED50: 24.3 mg/kg

## NC(=O)N1CCN(c2nn(-c3ccccc3Cl)c3ccccc23)CC1 [4-[1-(2-chlorophenyl)-1H-indazol-3-yl]-1-piperazine carboxamide hemifumarate]
[3]; [5]
  ED50: 38.9 mg/kg

## NC(=O)N1CCN(c2nn(-c3ccc(F)cc3)c3ccccc23)CC1 [4-[1-(4-Fluorophenyl)-1H-indazol-3-yl]-1-piperazine carboxamide]
[3]; [5]
  ED50: 22.7 mg/kg

## CN(C)CCC=C1c2ccccc2CCc2ccccc21 [amitriptyline, reference compound]
[1]
  ED50: 1.5 mg/kg

## CN(C)CCCN1c2ccccc2CCc2ccccc21 [imipramine, reference compound]
[1]; read-out: ANTI-[…] (% Inhibition of Ptosis) ED50 (mg/kg,i.p.)
  ED50: 1.3 mg/kg

## CC(C)=CCN1CCC2(C)c3cc(O)ccc3CC1C2C (centres unmarked) [pentazocine, reference compound]
[2]; [6]
  ED50: 1.3 mg/kg

## CCC1(c2ccccc2)C(=O)NC(=O)NC1=O [phenobarbitol, reference compound]
[3]; Mus musculus
  ED50: 8.4 mg/kg

## CCC(=O)O[C@](Cc1ccccc1)(c1ccccc1)[C@H](C)CN(C)C [propoxyphene, reference compound]
[2]; [6]
  ED50: 3.9 mg/kg
